In paper PMC10758951, “mRNA display reveals a class of high-affinity bromodomain-binding motifs that are not found in the human proteome” (The Journal of Biological Chemistry, 2023):

Experiments:
BRD3–BD1 = molecular target: T1, BRD3–BD1 (Homo sapiens, UniProt Q15059); experiment: Isothermal titration calorimetry (ITC); settings: ITC 25 °C, BRD3–BD1 titrated into peptide; fit to binding isotherm
T1 construct: BRD3 (BD1: 25–147; BD2: 307–419); His tag (N); biotinylation (Avi-type acceptor, vector pQE80L-Navi) (N); made in house; host or cells: Escherichia coli
Text: (§1) The BDs from human BRD2 (BD1: 65–194; BD2: 347–455), BRD3 (BD1: 25–147; BD2: 307–419), and BRD4 (BD1: 42–168; BD2: 348–464) were expressed in Escherichia coli from pQE80L-Navi (Qiagen) as N-terminally His-tagged and biotinylated proteins for SPR. For other experiments, they were expressed from pGEX-6P (Cytiva) as N-terminal glutathione-S-transferase-fusion proteins. Expression and purification, via affinity chromatography and size-exclusion chromatography, of unlabeled and uniformly ^15N-labeled proteins were carried out as described previously ([11]).
The affinities and stoichiometry for the interaction of BRD3–BD1 with 2AcK and 2AcK.4E peptides were determined using a MicroCal PEAQ ITC (Malvern Instruments). Titrations of BRD3–BD1 (1 mM) into peptide (25–50 μM) were carried out at 25 °C using a 0.2 μl initial injection and 20 to 24 subsequence 1 to 3 μl injections. Data were analyzed using Malvern MicroCal PEAQ ITC Software, using a protein into buffer baseline correction and fitted with a one-site binding model.

[1] = Peptide solubility (as observed on sample preparation); format: physicochemical; settings: dissolved in water or experimental buffer; qualitative statement
Procedure: The concentrations of the peptides used in this study were determined by measuring absorbance at 205 nm ([21]) and NMR ([22]) quantification using a known concentration of 4,4-dimethyl-4-silapentane-1-sulfonic acid as a reference. Peptides were first dissolved in either water or experimental buffer, and measurements were made on the soluble peptide remaining in solution following removal insoluble peptide via centrifugation.

BRD4–BD2 = molecular target: T2, BRD4–BD2 (Homo sapiens, UniProt O60885); experiment: SPR binding of peptides to BET bromodomains; settings: SPR 4 °C; biotinylated BD immobilized on biotin CAP chip, peptide flowed; 20 mM Mes pH 6.5, 150 mM NaCl, 0.05% Tween-20; steady state 1:1 fit; geometric mean of minimum three measurements
T2 construct: BRD4 (BD1: 42–168; BD2: 348–464); His tag (N); biotinylation (Avi-type acceptor, vector pQE80L-Navi) (N); made in house; host or cells: Escherichia coli
Text: as §1
(§2) Measurements were conducted on a T200 (Cytiva) and data analyzed using the Biacore Insight Evaluation Software. Experiments were performed at 4 °C in multicycle kinetics mode and fit using the equilibrium steady state affinity model (1:1 Langmuir binding isotherm). For experiments measuring the binding of the 2AcK peptide, biotinylated BET BDs were immobilized on a biotin CAP chip (Cytiva) with a target density of ∼1000 to 2000 RU and peptide was flowed over the chip. A buffer comprising 20 mM Mes (pH 6.5), 150 mM NaCl, 0.05% (v/v) Tween-20 was used as the running buffer. For experiments measuring the binding of 1AcK.4E and 2AcK.4E, C-terminally biotinylated variants of the peptides were immobilized on a CM5 chip (Cytiva), which had been amine-coupled with streptavidin, to a target density of ∼50 to 100 RU and unlabeled BET BDs were flowed over the chip. A buffer comprising 20 mM Hepes (pH 7.5), 150 mM NaCl, and 0.05% (v/v) Tween-20 was used as the running buffer.

BRD3–BD2 = molecular target: T3, BRD3–BD2 (Homo sapiens, UniProt Q15059); experiment: SPR binding of peptides to BET bromodomains; settings: peptide flowed
T3 construct: BRD3 (BD1: 25–147; BD2: 307–419); His tag (N); biotinylation (Avi-type acceptor, vector pQE80L-Navi) (N); made in house; host or cells: Escherichia coli
Text: as §1, §2

BRD2–BD2 = molecular target: T4, BRD2–BD2 (Homo sapiens, UniProt P25440); experiment: SPR binding of peptides to BET bromodomains; settings: peptide flowed
T4 construct: human BRD2 (BD1: 65–194; BD2: 347–455); His tag (N); biotinylation (Avi-type acceptor, vector pQE80L-Navi) (N); made in house; host or cells: Escherichia coli
Text: as §1, §2

[2] = molecular target: BRD3–BD1, BRD4–BD1, and BRD2–BD1; experiment: SPR, stated jointly for the BD1 domains; format: binding, human; settings: range over BRD3–BD1, BRD4–BD1 and BRD2–BD1; BD immobilized, peptide flowed; equilibrium steady state affinity analysis; read-out: Affinities (KD) for the three BD1 domains, SPR
Text: as §1
Measurements were conducted on a T200 (Cytiva) and data analyzed using the Biacore Insight Evaluation Software. Experiments were performed at 4 °C in multicycle kinetics mode and fit using the equilibrium steady state affinity model (1:1 Langmuir binding isotherm). For experiments measuring the binding of the 2AcK peptide, biotinylated BET BDs were immobilized on a biotin CAP chip (Cytiva) with a target density of ∼1000 to 2000 RU and peptide was flowed over the chip. A buffer comprising 20 mM Mes (pH 6.5), 150 mM NaCl, 0.05% (v/v) Tween-20 was used as the running buffer. […]

[3] = Fig. 2A, one titration, fit to 1:1 binding model, BD immobilized, Mes pH 6.5, 4 °C
[4] = SPR 4 °C, biotinylated BD immobilized on biotin CAP chip, 20 mM Mes pH 6.5, 150 mM NaCl, 0.05% Tween-20, steady state 1:1 fit, geometric mean of minimum three measurements

T3 sequence (Q15059 307-419): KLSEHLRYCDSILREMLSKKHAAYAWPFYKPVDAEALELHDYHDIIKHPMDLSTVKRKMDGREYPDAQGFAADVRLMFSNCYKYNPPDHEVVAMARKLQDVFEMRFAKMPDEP
T4 sequence (P25440 347-455): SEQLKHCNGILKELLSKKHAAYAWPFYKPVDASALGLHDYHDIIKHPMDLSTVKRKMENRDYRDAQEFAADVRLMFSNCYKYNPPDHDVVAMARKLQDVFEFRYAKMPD
T1 sequence (Q15059 25-147): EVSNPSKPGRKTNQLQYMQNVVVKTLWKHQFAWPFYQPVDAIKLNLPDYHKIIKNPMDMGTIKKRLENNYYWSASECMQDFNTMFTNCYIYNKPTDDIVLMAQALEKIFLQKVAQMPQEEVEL

Substance	N value (stoichiometry) from ITC fit (BRD3–BD1)	Solubility of the peptide (in words) [1]	KD (SPR) BRD4–BD2 (BRD4–BD2)	KD on plot, typical SPR titration, BRD3-BD2 (BRD3–BD2; [3])	KD (SPR) BRD3–BD2 (BRD3–BD2; [4])	KD on plot, typical SPR titration, BRD2-BD2 (BRD2–BD2; [3])	KD (SPR) BRD2–BD2 (BRD2–BD2; [4])	Kd [2]
Ac-AQRSLK(Ac)LLK(Ac)HLYH-NH2 (C-terminus assumed) [2AcK]	~2.5	slightly more soluble	a small degree of binding observed	No binding	no measurable binding	No binding	no measurable binding	1000 to 2000 nM
ALLLAKLYHF [1AcK]	–	not soluble at concentrations high enough to allow measurements to be made	–	–	–	–	–	–
